The test concerns the target human GPR17 short isoform (Homo sapiens (Human), UniProt Q13304). The experiment in a line: GPR17 cAMP assay (hGPR17 cAMP, antagonist mode against EC80 of MDL29,951). The note with it: CHO-K1 cells stably expressing human GPR17 short isoform; EC80 of agonist MDL29,951; forskolin 15 μM. The class given is cell-based. On the procedure: GPR17 cAMP Assay Protocol:
CHO-K1 cells stably expressing vector containing untagged human GPR17 short isoform (Roche) were cultured at 37° C./5% CO2 in DMEM (Dulbecco's Modified Eagle Medium):F-12 (1:1) supplemented with 10% foetal bovine serum and 400 μg/ml Geneticin.
Changes in intracellular cyclic adenosine monophosphate (cAMP) levels were quantified using the Nano-TRF Detection Assay kit (Roche Diagnostics, Cat. No. 05214386001). This assay allows for direct cAMP quantification in a homogeneous solution, cAMP is detected based on time-resolved fluorescence energy transfer (TR-FRET) and competitive binding of ruthenylated cAMP and endogenous cAMP to an anti-cAMP monoclonal antibody labeled with AlexaFluor-700. The Ruthenium complex serves as the FRET donor and transfers energy to AlexaFluor-700. The FRET signal is inversely proportional to the cAMP concentration.
CHO-GPR17S cells were detached with Accutase and resuspended in assay buffer consisting of Hank's Balanced Salt Solution (HBSS), 10 mM HEPES (4-(2-hydroxyethyl) piperazine-1-ethanesulfonic acid solution) and 0.1% bovine serum albumin (pH 7.4). The cells were seeded in black 384-well plates (Corning) at a density of 10,000 cells/20 μl assay buffer until the addition of compounds.
Test antagonist compounds were serially diluted in dimethyl sulfoxide (DMSO) and spotted in 384-well plates. The compounds were then diluted in HBSS buffer supplemented with an EC80 concentration of MDL29,951 (3-(2-Carboxy-4,6-dichloroindol-3-yl)propionic acid) (GPR17 agonist) plus 3-Isobutyl-1-methylxanthine (IBMX) (0.5 mM final concentration) and added to the cells at room temperature. Forskolin (15 μM final concentration) was added 5 minutes after the test compounds and the cells were incubated at room temperature for 30 minutes. The assay was stopped by adding cAMP detection mix (containing detergents for cell lysis) for 90 minutes at room temperature.
Cellular cAMP was measured using a Paradigm reader (Molecular Devices). The raw data was used to calculate the FRET signal based on the assay's P-factor as per cAMP kit instructions. The data was normalized to the maximal activity of a reference antagonist and dose response curves were fitted to the percent activity of the test compounds using a sigmoidal dose response model (Genedata Screener).

Drawing on patent US20240025883A1, “PYRIMIDIN-2-YL SULFONAMIDE DERIVATIVES” (Hoffmann-La Roche Inc., priority 2021, published 2024), this text covers IC50 for 34 compounds.

human GPR17 short isoform, sequence (Q13304 29-367): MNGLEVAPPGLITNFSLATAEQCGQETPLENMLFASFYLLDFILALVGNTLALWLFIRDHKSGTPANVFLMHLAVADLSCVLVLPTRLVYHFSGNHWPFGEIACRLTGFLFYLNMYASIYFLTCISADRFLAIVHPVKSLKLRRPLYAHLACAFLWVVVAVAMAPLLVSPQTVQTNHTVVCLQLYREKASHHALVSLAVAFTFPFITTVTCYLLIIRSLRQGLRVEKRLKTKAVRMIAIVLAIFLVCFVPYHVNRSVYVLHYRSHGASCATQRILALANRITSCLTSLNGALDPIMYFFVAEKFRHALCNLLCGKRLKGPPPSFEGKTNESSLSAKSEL

As for `COc1nc(NS(=O)(=O)c2c[nH]c3c(F)c(Cl)ccc23)ncc1OCCF` [Example 2, 6-chloro-7-fluoro-N-[5-(2-fluoroethoxy)-4-methoxy-pyrimidin-2-yl]-1H-indole-3-sulfonamide], the 50% inhibitory concentration (IC50) came out at 36 nM. In other words, the double-digit nanomolar range.

For the compound `COc1nc(NS(=O)(=O)c2c[nH]c3c(Cl)c(Cl)ccc23)ncc1OCCF` [Example 3, 6,7-dichloro-N-[5-(2-fluoroethoxy)-4-methoxy-pyrimidin-2-yl]-1H-indole-3-sulfonamide], the IC50 worked out at 50 nM.

`COc1nc(NS(=O)(=O)c2c[nH]c3c(C(F)F)c(Cl)ccc23)ncc1OCCF` [Example 4, 6-chloro-7-(difluoromethyl)-N-[5-(2-fluoroethoxy)-4-methoxy-pyrimidin-2-yl]-1H-indole-3-sulfonamide] showed a 50% inhibitory concentration (IC50) of 34 nM.

For the compound `COc1nc(NS(=O)(=O)c2c[nH]c3c(OC4CC4)c(Cl)ccc23)ncc1OCCF` [Example 5, 6-chloro-7-(cyclopropoxy)-N-[5-(2-fluoroethoxy)-4-methoxy-pyrimidin-2-yl]-1H-indole-3-sulfonamide], the concentration for half-maximal inhibition (IC50) is 103 nM.

`CCOc1cnc(NS(=O)(=O)c2c[nH]c3cc(Cl)ccc23)nc1OC` [Example 6, 6-chloro-N-(5-ethoxy-4-methoxy-pyrimidin-2-yl)-1H-indole-3-sulfonamide] yielded a concentration for half-maximal inhibition (IC50) of 129 nM.

The compound `COCCOc1cnc(NS(=O)(=O)c2c[nH]c3cc(Cl)ccc23)nc1OC` [Example 7, 6-chloro-N-[4-methoxy-5-(2-methoxyethoxy)pyrimidin-2-yl]-1H-indole-3-sulfonamide] registered an IC50 of 403 nM.

In turn, `COc1nc(NS(=O)(=O)c2c[nH]c3cc(Cl)ccc23)ncc1OC(F)F` [Example 8, 6-chloro-N-[5-(difluoromethoxy)-4-methoxy-pyrimidin-2-yl]-1H-indole-3-sulfonamide] registered a half-inhibitory concentration (IC50) of 182 nM.

In the case of `COc1nc(NS(=O)(=O)c2c[nH]c3cc(Cl)ccc23)ncc1OCCOC(F)F` [Example 9, 6-chloro-N-[5-[2-(difluoromethoxy)ethoxy]-4-methoxy-pyrimidin-2-yl]-1H-indole-3-sulfonamide], the IC50 is 218 nM.

As for `COc1nc(NS(=O)(=O)c2c[nH]c3nc(Cl)ccc23)ncc1OCCF` [Example 10, 6-chloro-N-[5-(2-fluoroethoxy)-4-methoxy-pyrimidin-2-yl]-1H-pyrrolo[2,3-b]pyridine-3-sulfonamide], the 50% inhibitory concentration (IC50) is 96 nM.

In turn, `COc1nc(NS(=O)(=O)c2c[nH]c3cc(Cl)ccc23)nc(OC)c1Cl` [Example 11, 6-chloro-N-(5-chloro-4,6-dimethoxy-pyrimidin-2-yl)-1H-indole-3-sulfonamide] came in with an IC50 of 91 nM.

Turning to `COc1nc(NS(=O)(=O)c2c[nH]c3cc(Cl)ccc23)nc(OC)c1Br` [Example 12, N-(5-bromo-4,6-dimethoxy-pyrimidin-2-yl)-6-chloro-1H-indole-3-sulfonamide], the IC50 is 20 nM. Against the preceding compound, the IC50 is about 4.5-fold lower.

The compound `CCOc1nc(NS(=O)(=O)c2c[nH]c3cc(Cl)ccc23)nc(OC)c1Br` [Example 13, N-(5-bromo-4-ethoxy-6-methoxy-pyrimidin-2-yl)-6-chloro-1H-indole-3-sulfonamide] showed an IC50 of 236 nM.

For `COc1nc(NS(=O)(=O)c2c[nH]c3cc(Cl)ccc23)nc(OCCF)c1Br` [Example 14, N-[5-bromo-4-(2-fluoroethoxy)-6-methoxy-pyrimidin-2-yl]-6-chloro-1H-indole-3-sulfonamide], the IC50 came to 215 nM. This IC50 and that of the compound before are within 1.5-fold of each other.

With `CCc1cnc(NS(=O)(=O)c2c[nH]c3cc(Cl)ccc23)nc1OC` [Example 15, 6-chloro-N-(5-ethyl-4-methoxy-pyrimidin-2-yl)-1H-indole-3-sulfonamide], the IC50 was found to be 132 nM.

As to `CCc1c(OC)nc(NS(=O)(=O)c2c[nH]c3cc(Cl)ccc23)nc1OC` [Example 16, 6-chloro-N-(5-ethyl-4,6-dimethoxy-pyrimidin-2-yl)-1H-indole-3-sulfonamide], the 50% inhibitory concentration (IC50) was determined as 23 nM.

For the compound `COc1nc(NS(=O)(=O)c2c[nH]c3cc(Cl)ccc23)nc(OC)c1C` [Example 17, 6-chloro-N-(4,6-dimethoxy-5-methyl-pyrimidin-2-yl)-1H-indole-3-sulfonamide], the 50% inhibitory concentration (IC50) is 19 nM.

As to `COc1nc(NS(=O)(=O)c2c[nH]c3cc(Cl)ccc23)nc(OC(F)F)c1Br` [Example 18, N-[5-bromo-4-(difluoromethoxy)-6-methoxy-pyrimidin-2-yl]-6-chloro-1H-indole-3-sulfonamide], the IC50 worked out at 83 nM.

`COc1nc(NS(=O)(=O)c2c[nH]c3cc(Cl)ccc23)nc(C2CC2)c1OCC(F)F` [Example 19, 6-chloro-N-[4-cyclopropyl-5-(2,2-difluoroethoxy)-6-methoxy-pyrimidin-2-yl]-1H-indole-3-sulfonamide] registered a concentration for half-maximal inhibition (IC50) of 49 nM. This IC50 lies about 1.7-fold lower than the previous one.

On to `COc1nc(NS(=O)(=O)c2c[nH]c3cc(Cl)ccc23)nc(C)c1OCC(F)F` [Example 20, 6-chloro-N-[5-(2,2-difluoroethoxy)-4-methoxy-6-methyl-pyrimidin-2-yl]-1H-indole-3-sulfonamide], for which the concentration for half-maximal inhibition (IC50) was 399 nM.

As for `COc1nc(NS(=O)(=O)c2c[nH]c3cc(Cl)ccc23)ncc1CCCF` [Example 21, 6-chloro-N-[5-(3-fluoropropyl)-4-methoxy-pyrimidin-2-yl]-1H-indole-3-sulfonamide], the half-inhibitory concentration (IC50) was 12 nM. This IC50 lies about 33-fold lower than the previous one.

`COc1nc(NS(=O)(=O)c2c[nH]c3cc(Cl)ccc23)ncc1C#N` [Example 23, 6-chloro-N-(5-cyano-4-methoxy-pyrimidin-2-yl)-1H-indole-3-sulfonamide]: the IC50 stood at 256 nM.

`COc1nc(NS(=O)(=O)c2csc3cc(Cl)ccc23)ncc1OCCF` [Example 24, 6-chloro-n-[5-(2-fluoroethoxy)-4-methoxy-pyrimidin-2-yl]benzothiophene-3-sulfonamide] gave an IC50 of 51 nM.

In turn, `COc1nc(NS(=O)(=O)c2c[nH]c3cc(Br)ccc23)ncc1OCCF` [Example 25, 6-bromo-N-[5-(2-fluoroethoxy)-4-methoxy-pyrimidin-2-yl]-1H-indole-3-sulfonamide] gave an IC50 of 23 nM. Against the preceding compound, the IC50 is about 2.2-fold lower.

`COc1nc(NS(=O)(=O)c2c[nH]c3cc(Cl)ccc23)ncc1C` [Example 26, 6-chloro-N-(4-methoxy-5-methyl-pyrimidin-2-yl)-1H-indole-3-sulfonamide] showed a half-inhibitory concentration (IC50) of 809 nM. This IC50 lies about 35-fold higher than the previous one.

As to `COc1nc(NS(=O)(=O)c2csc3nc(Cl)ccc23)ncc1OCCF` [Example 27, 6-chloro-N-[5-(2-fluoroethoxy)-4-methoxy-pyrimidin-2-yl]thieno[2,3-b]pyridine-3-sulfonamide], the IC50 turned out to be 83 nM.

`COc1nc(NS(=O)(=O)c2c[nH]c3cc(Cl)ccc23)ncc1C1CC1` [Example 28, 6-chloro-n-(5-cyclopropyl-4-methoxy-pyrimidin-2-yl)-1h-indole-3-sulfonamide] came in with an IC50 of 653 nM.

Compound `CC#Cc1cnc(NS(=O)(=O)c2c[nH]c3cc(Cl)ccc23)nc1OC` [Example 29, 6-chloro-n-(4-methoxy-5-prop-1-ynyl-pyrimidin-2-yl)-1h-indole-3-sulfonamide] registered a concentration for half-maximal inhibition (IC50) of 80 nM. Compared with the last compound, the IC50 is about 8.2-fold lower.

For the compound `COc1nc(NS(=O)(=O)c2c[nH]c3nc(Br)ccc23)nc(OC)c1Br` [Example 30, 6-bromo-n-(5-bromo-4,6-dimethoxy-pyrimidin-2-yl)-1h-pyrrolo[2,3-b]pyridine-3-sulfonamide], the 50% inhibitory concentration (IC50) is 43 nM. Compared with the last compound, the IC50 is about 1.9-fold lower.

In turn, `COc1nc(NS(=O)(=O)c2c[nH]c3nc(Cl)ccc23)nc(OC)c1Br` [Example 31, N-(5-bromo-4,6-dimethoxy-pyrimidin-2-yl)-6-chloro-1h-pyrrolo[2,3-b]pyridine-3-sulfonamide] yielded an IC50 of 76 nM.

With `COc1nc(NS(=O)(=O)c2c[nH]c3cc(Cl)ccc23)nc(OC)c1C#N` [Example 32, 6-chloro-N-(5-cyano-4,6-dimethoxy-pyrimidin-2-yl)-1H-indole-3-sulfonamide], the IC50 worked out at 232 nM.

The compound `Cc1nc(NS(=O)(=O)c2c[nH]c3cc(Cl)ccc23)nc(C)c1Br` [Example 33, N-(5-bromo-4,6-dimethyl-pyrimidin-2-yl)-6-chloro-1H-indole-3-sulfonamide] returned a concentration for half-maximal inhibition (IC50) of 569 nM.

The compound `O=S(=O)(Nc1ncc(OCC(F)F)cn1)c1c[nH]c2cc(Cl)ccc12` [Example 34, 6-chloro-N-[5-(2,2-difluoroethoxy)pyrimidin-2-yl]-1H-indole-3-sulfonamide] showed an IC50 of 924 nM.

With `CSc1nc(NS(=O)(=O)c2c[nH]c3cc(Cl)ccc23)ncc1OCC(F)F` [Example 35, 6-chloro-N-[5-(2,2-difluoroethoxy)-4-methylsulfanyl-pyrimidin-2-yl]-1H-indole-3-sulfonamide], the IC50 was found to be 479 nM.

`COc1nc(NS(=O)(=O)c2c[nH]c3cc(Cl)ccc23)ncc1SC` [Example 36, 6-chloro-N-(4-methoxy-5-methylsulfanyl-pyrimidin-2-yl)-1H-indole-3-sulfonamide]: the IC50 came to 119 nM. This IC50 lies about 4-fold lower than the previous one.
